“Also recorded” adds a separate entry of the source.
What was measured:
[1] = system: FHF and aSHF progenitors / cardioids; assay: Lineage specification of cardiac progenitors/cardioids by retinoic acid dosage; type: cell-based, human; settings: LV (FHF progenitor), Cardiac Mesoderm Patterning Media One
Procedure: These were termed 3D protocols.
The retinoic acid concentration should be low as a higher concentration (>100 nM) leads to FHF-derived atria, not ventricular fate.
The retinoic acid addition here helps drive the RV identity.

[2] = system: cardioids (LV, RV, OFT, Atria, AVC); settings: for dosage at which severe compartment-specific and stage-specific effects were observed: human
Procedure: All cardioids were treated with the teratogens from mesoderm induction (day 0) until day 9.5.
All cardioids were treated with the teratogens from mesoderm induction (day 0) until day 9.5. *p<0.05, **p<0.01, ***p<0.001, ****p<0.0001.
hPSCs (WTC or H9 lines) are seeded in a 24-well plate (TPP, #92024) at 30-40 k cells per well in E8 medium+ROCKi (5 μM Y-27632, Tocris #1254). […] The medium contains BSA which is important for efficient cardioid generation. 24 hours after seeding in the 24-well plate, the cells are induced with mesoderm induction media. Mesoderm induction media is made up of CDM containing FGF2 (30 ng/ml, QKine, Cambridge/UK), LY294002 (5 μM, Tocris, #1130), Activin A (specific concentrations for different cardioid subtypes-see below, QKine, Cam-bridge/UK), BMP4 (10 ng/ml, R&D Systems RD-314-BP-050), and CHIR99021 (specific concentrations for different cardioid subtypes—see below, R&D Systems RD-4423/50). After 36-40 hours cells are dissociated with TrypleE (Gibco, #12605010) and seeded in a Corning ultra-low attachment 96 well plate (Corning, #7007) at 15-20 k cells/well in Cardiac Mesoderm Patterning Media One made up of CDM containing ROCK inhibitor and for all protocols besides the LV 1 μg/ml of insulin (Roche, #11376497001) plus specific factors depending on cardioid subtype (see below). After seeding, the cells are spun down in a centrifuge for 4 mins at 200 g. This protocol is termed 2D-3D standard protocol. Alternatively, hPSCs were seeded into Corning ultra-low attachment 96 well plate with a density of 5000 cells/well. Cells were seeded in a volume of 200 ml containing E8+ROCKi and collected by centrifugation for 5 minutes at 200 g. As another option, 2500 cells/well were seeded directly into induction media+ROCKi and collected by centrifugation for 5 minutes at 200 g. For both protocols, cells were induced with mesoderm induction media as described for the 2D->3D protocol. These were termed 3D protocols. For both protocols, 24 hours later (or at day 2.5) the cells are fed with Cardiac Mesoderm Patterning Media One. For the next two days, the medium is changed to Cardiac Mesoderm Patterning Media Two made up of CDM containing specific factors depending on the cardioid subtype (see below) and exchanged every day. For the subsequent two days, media is exchanged every day with Cardiomyocyte Differentiation Media CDM medium containing BMP4 (10 ng/ml), FGF2 (8 ng/ml) and insulin (10 μg/ml). For the subsequent days of culture, media is exchanged every other day with CDM containing insulin (10 μg/ml).
Spinning disk confocal microscopes (Olympus spinning disk system based on an IX3 Series (IX83) inverted microscope, equipped with a Yokogawa W1 spinning disc) were used to image fixed tissue sections. Live imaging was carried out using an inverted widefield microscope for brightfield and fluorescence (Axioobserver Z1 equipped with an sCMOS camera (Hamamatsu Orca Flash 4). Cardioids in 96-well plates were also imaged using a Celigo Imaging Cytometer microscope (Nexcelom Biosciences, LLC).

[3] = system: cardioids (LV, RV, OFT, Atria, AVC); assay: Real-time qPCR of cardioids treated with teratogens; type: cell-based, human
Procedure: The isolated RNA was reverse transcribed to cDNA using the Reverse Transcription Kit (Invitrogen, #18080044) with a C100 Touch Bio-Rad Thermal Cycler. Quantitative PCR was performed using the GoTaq qPCR master mix 2× (Promega, #A6001) with a Bio-Rad CFX384 Real-Time thermal cycler. Values of gene expression of each sample were obtained in triplicates. The Log-fold change of the sample from PBGD as a housekeeping gene and a pluripotent stem cell sample for normalization were used.

[4] = cited from earlier work

## CC1=C(/C=C/C(C)=C/C=C/C(C)=C/C(=O)O)C(C)(C)CCC1 [retinoic acid]
[1]
  retinoic acid concentration that leads to FHF-derived atria, not ventricular fate: > 100 nM

## CC(=O)Oc1ccccc1C(=O)O [Aspirin]
[2]
  size and TNNI-GFP expression compared to untreated cardioids: no size and TNNI-GFP expression differences
[3]; high 30 μM dosage
  gene expression differences vs control cardioids: no obvious gene expression differences; also recorded: neither observed morphological nor significant gene expression differences

## CC1=C(/C=C/C(C)=C/C=C/C(C)=C/CO)C(C)(C)CCC1 [All trans Retinol]
[2]
  effect on all the other cardioid subtypes: unaffected
  morphological effect on OFT cardioids: severe morphological effect on OFT cardioids
  size difference between treated and untreated cardioids: no size difference between treated and untreated cardioids within one protocol the except LV cardioids treated with 50 nM
[3]; OFT cardioids
  gene expression in OFT cardioids (OFT, ventricular, chamber, atrial genes): downregulation of OFT and upregulation of ventricular genes

## CC1=C(/C=C/C(C)=C/C=C/C(C)=C\C(=O)O)C(C)(C)CCC1 [Isotretinoin]
[2]
  defects in OFT, atrial, and AVC cardioids: specification, patterning and morphogenesis defects
  dosage at which severe compartment-specific and stage-specific effects were observed: 1 nM

## COc1cc(C)c(/C=C/C(C)=C/C=C/C(C)=C/C(=O)O)c(C)c1C [Acitretin]
[2]
  CM differentiation and morphology of treated cardioids: Inefficient CM differentiation and morphological changes
  defects in OFT, atrial, and AVC cardioids: specification, patterning and morphogenesis defects
  dosage at which severe compartment-specific and stage-specific effects were observed: 5 nM

## O=C1CCC(N2C(=O)c3ccccc3C2=O)C(=O)N1 (stereo not shown) [thalidomide]
[4]
  human therapeutic plasma concentrations: ~2.4 µM
[3]; d9.5 cardioids
  expression of chamber-specific marker NPPA: downregulation of the chamber-specific marker NPPA for all lineages except for the RV and OFT
  expression of compartment identity markers (NR2F2, IRX1/4): dosage-specific misregulation of compartment identity markers (NR2F2, IRX1/4)
[3]; d9.5 cardioids, fold change normalized to housekeeping gene and pluripotency
  expression of lineage specific genes: mis-regulation of lineage specific genes

From patent publication US20250297225A1, “MULTIPLE HEART TISSUE CULTURE FUSION” (IMBA - INSTITUT FÜR MOLEKULARE BIOTECHNOLOGIE GMBH, priority 2022, published 2025)
